Data on 4 compounds can be found in article PMC8474116, “Discovery of Novel Acetamide-Based Heme Oxygenase-1 Inhibitors with Potent In Vitro Antiproliferative Activity” (Journal of Medicinal Chemistry, 2021).

For orientation: melting point means the temperature of the solid-liquid transition. As a reminder, the IC50 is the midpoint of a concentration-inhibition curve. A high value points to a need for much substance.

Series [1] concerns the target T1, HO-1 (Rattus norvegicus, UniProt P06762).
T1 construct: selected to use the most native (i.e., closest to in vivo) forms of HO-1 and HO-2; from tissue; host or cells: rat spleen (male Sprague-Dawley), microsomal fraction
T1 sequence (P06762 1-289): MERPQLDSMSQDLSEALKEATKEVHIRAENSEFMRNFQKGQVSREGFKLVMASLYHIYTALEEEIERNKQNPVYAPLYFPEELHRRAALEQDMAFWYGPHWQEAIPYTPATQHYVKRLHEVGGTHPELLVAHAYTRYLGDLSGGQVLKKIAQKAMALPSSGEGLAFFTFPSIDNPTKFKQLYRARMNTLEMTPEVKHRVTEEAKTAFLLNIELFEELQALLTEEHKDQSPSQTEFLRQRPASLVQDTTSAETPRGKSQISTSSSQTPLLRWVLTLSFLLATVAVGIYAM
Description: HO-1 enzymatic activity, rat spleen microsomal fraction (bilirubin formation). The class given is biochemical. Conditions: for IC50: rat spleen microsomal fraction, mean of triplicate ± SD; for SI (HO-2/HO-1): ratio of HO-2 and HO-1 IC50. As to the method:
(§1) HO-1 and HO-2 were obtained, respectively, from the rat spleen and brain as the microsomal fraction prepared by differential centrifugation; the dominance of HO-1 protein in the rat spleen and HO-2 in the rat brain has been well documented.[24] These particular microsomal preparations were selected to use the most native (i.e., closest to in vivo) forms of HO-1 and HO-2. Spleen and brain (Sprague-Dawley rats) microsomal fractions were prepared according to the procedure outlined by Ryter et al.[2] The experiments reported in the present paper complied with the current Italian law and met the guidelines of the Institutional Animal Care and Use Committee of the Ministry of Health (Directorate General for Animal Health and Veterinary Medicines, Italy) “Dosing of enzymatic activities in rat microsomes” (2018–2022), project code 02769.N.VLY. The experiments were performed in male Sprague-Dawley albino rats (150 g body weight and age 45 d). They had free access to water and were kept at room temperature with a natural photoperiod (12 h light–12 h dark cycle). For measuring HO-1 and HO-2 activities, each rat was sacrificed and their spleen and brain were excised and weighed. A homogenate (15%, w/v) of spleens and brains pooled from four rats was prepared in ice-cold HO-homogenizing buffer (50 mM Tris buffer, pH 7.4, containing 0.25 M sucrose) using a Potter–Elvehjem homogenizing system with a Teflon pestle. The microsomal fraction of rat spleen and brain homogenate was obtained by centrifugation at 10 000g for 20 min at 4 °C, followed by centrifugation of the supernatant at 100 000g for 60 min at 4 °C. The 100 000g pellet (microsomes) was resuspended in 100 mM of potassium phosphate buffer, pH 7.8, containing 2 mM MgCl2 with a Potter–Elvehjem homogenizing system. The rat spleen and brain microsomal fractions were divided into equal aliquots, placed into microcentrifuge tubes, and stored at −80 °C for up to 2 months.
(§2) Liver cytosol has been used as a source of biliverdin reductase. Rat liver was perfused through the hepatic portal vein with cold 0.9% NaCl; then, it was cut and flushed with 2 × 20 mL of ice-cold PBS to remove all of the blood. Liver tissue was homogenized in 3 volumes of a solution containing 1.15% KCl w/v and Tris buffer 20 mM, pH 7.8 on ice. Homogenates were centrifuged at 10 000g for 20 min at 4 °C. The supernatant was decanted and centrifuged at 100 000g for 1 h at 4 °C to sediment the microsomes. The 100 000g supernatant was saved and then stored in small amounts at −80 °C after its protein concentration was measured.
(§3) The HO-1 and HO-2 activities were determined by measuring the bilirubin formation using the difference in absorbance at 464–530 nm, as described by Ryter et al.[2] Reaction mixtures (500 μL) consisted of 20 mM of Tris–HCl, pH 7.4, (1 mg/mL) microsomal extract, 0.5–2 mg/mL of biliverdin reductase, 1 mM of NADPH, 2 mM of glucose 6-phosphate (G6P), 1 U of G6P dehydrogenase, 25 μM of hemin, and 10 μL of DMSO (or the same volume of DMSO solution of test compounds to a final concentration of 100, 10, and 1 μM). Incubations were carried out for 60 min at 37 °C in a circulating water bath in the dark. Reactions were stopped by adding the same volume of chloroform. After recovering the chloroform phase, the amount of bilirubin formed was measured with a double-beam spectrophotometer as OD464–530 nm (extinction coefficient, 40 mM/cm^–1 for bilirubin). One unit of the enzyme was defined as the amount of enzyme catalyzing the formation of 1 nmol of bilirubin/mg protein/h.

In another series the test system is A172 cells. Description: MTT cell viability assay, A172. Type of series: cell-based, human. The conditions noted are these: 48 h. How it is done:
(§4) Experiments were performed on human GBM cell lines U87MG (ATCCC number #HTB-14) and A172 (ATCCC #CRL-1620) on DU145 (ATCC HTB-81) and human lung adenocarcinoma A549 (ATCC CCL-185-LUC2). All cell lines were obtained from the American Type Culture Collection (ATCC, Rockville, MD). Cells were grown in Dulbecco’s modified Eagle’s medium (DMEM) supplemented with 10% of heat-inactivated fetal bovine serum (FBS), 100 U/mL of penicillin, and 100 μg/mL of streptomycin (Sigma-Aldrich, Steinheim, Germany). Cells were incubated at 37 °C in a humidified atmosphere with 5% CO2.
(§5) The effect of selected compounds 7i and 7l–p on cell viability was assessed by performing an MTT assay. Cells were seeded into 96-well plates at a density of 7 × 10^3 cells/well in 100 μL of culture medium. After 24 h, cells were treated with selected compounds at three different concentrations (1 μM, 10 μM, and 50 μM) for 48 h. Following treatments, 0.5 mg/mL of 3-[4,5-dimethylthiazol-2-yl]-2,5-diphenyltetrazolium bromide (MTT) (Sigma-Aldrich) was added to each well and incubated for 4 h at 37 °C. Finally, dimethyl-sulfoxide (DMSO) was used to dissolve formazan salts, and absorbance was measured at 570 nm in a microplate reader (Biotek Synergy-HT). Eight replicate wells were used for each group.
(Tetrazolium dyes change colour on reduction, which living cells bring about.)

The target of the next series is T2, HO-2 (Rattus norvegicus, UniProt P23711).
T2 construct: selected to use the most native (i.e., closest to in vivo) forms of HO-1 and HO-2; from tissue; host or cells: rat brain (male Sprague-Dawley), microsomal fraction
T2 sequence (P23711 1-315): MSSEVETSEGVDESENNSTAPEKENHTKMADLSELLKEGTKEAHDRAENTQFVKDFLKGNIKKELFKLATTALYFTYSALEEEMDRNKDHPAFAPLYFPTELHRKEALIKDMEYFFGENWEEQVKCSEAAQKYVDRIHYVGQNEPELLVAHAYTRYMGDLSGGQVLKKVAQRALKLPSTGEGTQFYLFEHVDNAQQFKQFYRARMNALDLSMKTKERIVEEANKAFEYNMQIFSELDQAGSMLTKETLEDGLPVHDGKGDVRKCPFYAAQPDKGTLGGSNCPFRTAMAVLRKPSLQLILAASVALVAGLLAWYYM
Description: HO-2 enzymatic activity, rat brain microsomal fraction (bilirubin formation). The class given is biochemical. The conditions noted are these: mean of triplicate ± SD. As to the method: as §1, §2, §3

Series [2] deals with HO-1. Description: HO-1 protein expression by Western blot, A172. Conditions: A172, 10 μM, 48 h. Type of series: cell-based, human. As to the method:
(§6) Proteins were extracted from total cell lysate, as previously described.[61] Briefly, cell lines were added to a buffer containing 20 mM Tris (pH 7.4), 2 mM EDTA, 0.5 mM EGTA, 50 mM mercaptoethanol, and […] sucrose supplemented with phosphatase and protease inhibitor cocktails (Roche Diagnostics, Monza, Italy). Subsequently, protein samples were sonicated twice for 20′ by using an ultrasonic probe, followed by centrifugation at 10 000g for 10 min at 4 °C. Sample proteins (30 μg) were diluted in 4X NuPage LDS sample buffer (Invitrogen, NP0007), heated at 80 °C for 5 min, and then separated on a Biorad Criterion XT 4–15% Bis–Tris gel (BIO-RAD) by electrophoresis and then transferred to a PVDF membrane (BIO-RAD). Blots were blocked using the Odyssey Blocking Buffer (LI-COR Biosciences) and probed with appropriate antibodies: HO-1 antibody (GeneTex GTX101147), goat polyclonal anti-VEGF (cat. no. sc-1836, Santa Cruz Biotechnology), and rabbit polyclonal anti-β-tubulin (cat n.sc-9104, Santa Cruz Biotechnology) and β-actin antibody (GeneTex GTX109639).
(§7) The secondary antibodies goat antirabbit (Odyssey, #926-32211; Odyssey #926-68021) and donkey antigoat IRDye 800CW (cat #926-32214; Li-Cor Biosciences) were used at 1:7000. Blots were scanned, and densitometric analysis was performed with the Odyssey Infrared Imaging System. Values were normalized to β-actin and to β-tubulin.
(In western blotting, separated proteins are transferred to a membrane and probed.)

Series [3] has as its system HO-1. Description: HO-1 protein expression by Western blot, DU145. Conditions: DU145, 10 μM, 48 h. The class given is cell-based. As to the method: as §6, §7
The next series deals with U87MG cells. Description: MTT cell viability assay, U87MG. Type of series: cell-based, human. The conditions noted are these: 48 h, at both concentrations 1 and 10 μM. As to the method:
as §4, §5

The test system of the next series is A549 cells. Description: MTT cell viability assay, A549. Type of series: cell-based, human. Conditions: 48 h, 10 μM. How it is done:
as §4, §5

The next series has as its system DU145 cells. Description: MTT cell viability assay, DU145. Type of series: cell-based. The conditions noted are these: 48 h, 1 μM and 10 μM. As to the method: as §4, §5
The test system of series [4] is HO-1. Description: HO-1 inhibition of known inhibitors (values printed in Figure 1). Type of series: biochemical. Conditions: 0.27 vs 4.0 μM.
Setting [5] is: all tested concentrations (1, 10, 50 μM).

With `CN(C(=O)Cn1ccnc1)C(c1ccccc1)c1ccccc1` [7i, N-Benzhydryl-2-(1H-imidazol-1-yl)-N-methylacetamide], the melting point lay in the range of 121 to 126 °C. Further, at HO-1 [1], the “HO-1 vs HO-2 selectivity (in words)” value is “superimposable HO-1 and HO-2 IC50 values”; the “fold more potent than parent compound 4 (HO-1)” value is “about 32 fold”; it took 900 ± 70 nM to reach half-maximal inhibition (IC50); the “SI (HO-2/HO-1)” value turned out to be 1. In addition, the “cell viability reduction (in words)” value in the series with A172 cells (setting [5]) is “remarkable reduction of cell viability”. The IC50 at HO-2 was found to be 900 ± 50 nM. In the series with HO-1 [2], the “HO-1 protein expression (in words)” value is “enhanced its levels”. Besides, the “HO-1 protein expression (in words)” value in the series on HO-1 [3] is reported as “reduced HO-1 protein expression”.

Regarding `CN(C(=O)Cn1ccnc1)C(c1ccccc1)c1cccc(Br)c1` (stereo not drawn) [7m, N-((3-Bromophenyl)(phenyl)methyl)-2-(1H-imidazol-1-yl)-N-methylacetamide], the melting point was in the range of 82 to 83 °C. Besides, at HO-1 [1], the “HO-1 vs HO-2 selectivity (in words)” value was “superimposable HO-1 and HO-2 IC50 values”; half-maximal inhibition (IC50) was put at 900 ± 30 nM; the “SI (HO-2/HO-1)” value is on record as 1.2. Also, in the series with A172 cells (setting [5]), the “cell viability reduction (in words)” value is “weak activity”. The same compound gave an IC50 against HO-2 of 1100 ± 40 nM. The “HO-1 protein expression (in words)” value with HO-1 [2] is listed as “enhanced its levels”. The cell viability reduction entry with U87MG cells is recorded as “more than 30%”.

The compound `CN(C(=O)Cn1ccnc1)C(c1ccccc1)c1ccc(OCc2ccc(Br)cc2)cc1` (stereo not drawn) [7p, N-((4-((4-Bromobenzyl)oxy)phenyl)(phenyl)methyl)-2-(1H-imidazol-1-yl)-N-methylacetamide] showed a melting point of 120 to 121 °C. On HO-1 [1], the “fold less potent than 7o (HO-1)” value is “about 6.5 fold”, the “fold less potent than compound 7i (HO-1)” value is recorded as around 9 fold, the “fold more selective for the inducible isoform (HO-1 over HO-2)” value was found to be 3 fold and the IC50 worked out at 8000 ± 390 nM. Besides, the “SI (HO-2/HO-1)” value at HO-1 [1] is listed as 3.1. In addition, in the series with A172 cells (10 μM), the “cell viability reduction (in words)” value is given as “milder activity”. Further, the “cell viability reduction (in words)” value in the series on A172 cells (50 μM) is “only at 50 μM”. The compound also gave an IC50 at HO-2 of 24710 ± 140 nM. The “cell viability reduction (in words)” value in the series on A549 cells is recorded as “weak effect”. Moreover, the cell viability reduction entry in the series with U87MG cells is given as “around 20%”. Further, in the series with DU145 cells, the “cell viability reduction (in words)” value is “had efficacies”.

For the compound `O=C(CC(c1ccccc1)c1ccccc1)Cn1ccnc1` [compound 3], in the series on HO-1 [4], the “fold higher inhibitory potency toward HO-1 with respect to monophenyl analogue 2” value is given as 15 fold.
